Like-named read-outs stand apart in the source and are kept apart here.
Key:
[1] = tested on: SUIT 2.28; test: Cell cycle analysis (FACS, PI staining), SUIT 2.28; type: cell-based; settings: for percentage of cells in the G0‐G1 phase: untreated 24.6%; for percentage of cells in the G2‐M phase: untreated 32.7%; for percentage of cells in the S phase: untreated 42.7%
Description: (§1) Modulation of the cell cycle was analyzed via flow cytometry. Cells (5 × 10^5 cells mL^− ^1) were seeded in 6‐well plates and were incubated at 37 °C overnight. Cells were treated with the compounds 1b and 1g at two different concentrations (1 × IC50 and 4 × IC50, according to each cell line) and were again incubated for 24 and 72 h. After treatment, cells were harvested with trypsin and were collected in specific fluorescence‐activated cell sorting (FACS) tubes. Cells were then washed with PBS and centrifuged at 1500 rpm for 5 min, in order to form a pellet. These pellets were fixed in 1 mL of ice‐cold 70% ethanol, added drop by drop during vortex, and placed in the refrigerator at 4 °C. After overnight incubation, the cells were washed twice with PBS, centrifuged (5 min at 1500 rpm), resuspended in 50 µL of RNase (100 µg mL^− ^1), and incubated for 30 min at 37 °C. Finally, 200 µL of propidium iodide solution (PI, 50 µg mL^− ^1) was added, and the cell distribution in the various phases of the cell cycle was analyzed via BD LSRFortessa Cell Analyzer. Data analysis was carried out with FACSdiva software (Becton Dickinson), while cell cycle distribution was determined using FCS express software.

[2] = tested on: PANC‐1; test: Cell cycle analysis (FACS, PI staining), PANC‐1; type: cell-based; settings: for percentage of cells in the G2‐M phase: untreated 18.1%; for percentage of cells in the G0‐G1 phase: untreated 40.7%; for percentage of cells in the S phase: untreated 41.3%
Description: as §1

[3] = tested on: PDAC3; test: Cell cycle analysis (FACS, PI staining), PDAC3; type: cell-based; settings: for percentage of cells in the G2‐M phase: untreated 13.3%; for percentage of cells in the G0‐G1 phase: untreated 50.0%; for percentage of cells in the S phase: untreated 36.7%
Description: as §1

[4] = tested on: Bax/Bcl‐2; test: Bax/Bcl‐2 ratio by RT‐PCR, PANC‐1 cells; type: cell-based
Description: In order to understand modulation of downstream genes of CDK7, gene expression analysis by qPCR was performed in all cell lines. Cells (5 × 10^5/well) were seeded in 6‐well plates and treated with the compounds 1b and 1g at 1× and 4 × IC50 concentrations. Cell lysates were collected 24 h post‐treatment using 300 µL of TRIzol Reagent (Ambion, 15,596,018) per well. Total RNA was extracted by mixing 60 µL of chloroform to the samples, incubating for 3 min and centrifuging at 12,000 rcf for 15 min at 4 °C. The upper aqueous phase containing RNA was transferred to a new Eppendorf and mixed with 120 µL of cold isopropanol in order to allow the RNA to precipitate. Samples were incubated at RT for 10 min and were then centrifuged at 12,000 rcf for 10 min at 4 °C. The isopropanol was carefully removed, and the pellet was washed twice with 70% ETOH. Pellets were left to air dry and consequently resuspended in RNAse‐free water. Samples were left agitation on a thermomixer at 55 °C for 10 min at 600 rpm and were then quantified through NanoDrop technology (Thermo Scientific, NanoDrop One/One^c). RNA samples were stored at −80 °C.
In order to perform cDNA synthesis, the First Strand cDNA synthesis kit (Thermo Scientific, K1612) was used. The previously isolated RNA was mixed with 1 µL of oligo dT18 primer into a pcr tube. Nuclease free water was added to reach a final volume of 11 µL. Samples were centrifuged at 1200 rcf for 5 min and were then placed on a thermomixer at 65 °C for a few minutes. A master mix was prepared, including 4 µL of 5× reaction buffer, 1 µL of ribolock RNAse inhibitor, 2 µL of dntp mix (10 mM), and 2 µL of M‐mulv reverse transcriptase for each sample. In total 9 µL of master mix were added to each vial. Samples were centrifuged again and were finally synthesized, following a cycle of 60 min at 37 °C and 5 min at 70 °C. cDNA was now finally synthesized and could be stored at −20 °C. RT‐PCRs reactions were performed using SYBR Green (Bio‐Rad, 1,725,271) (5 µL per sample), primer mix (0.3 µM) (2 µL per sample), and cDNA (10 ng µL^− ^1) (3 µL per sample). […] RT‐PCR assays were carried out in a GeneAmp 5700 Sequence Detection System programmed to hold at 50 °C for 30 min, to hold at 95 °C for 10 min, and to complete 45 cycles of 95 °C for […] and 50 °C for 1 min. The genes that were investigated are shown in Table 5 , with their respective forward and reverse primer sequences.

[5] = tested on: PATU‐T; test: Cell cycle analysis (FACS, PI staining), PATU‐T; type: cell-based; settings: for percentage of cells in the G2‐M phase: untreated 18.4%; for percentage of cells in the S phase: untreated 32.5%; for percentage of cells in the G0‐G1 phase: untreated 49.1%
Description: as §1

[6] = target: CDK7 (Homo sapiens, UniProt P50613); test: In vitro CDK7 enzyme inhibition assay (ADP‐Glo); type: biochemical; parameters: purchased Promega Corporation VA7402
Sequence of CDK7 (P50613 whole entry): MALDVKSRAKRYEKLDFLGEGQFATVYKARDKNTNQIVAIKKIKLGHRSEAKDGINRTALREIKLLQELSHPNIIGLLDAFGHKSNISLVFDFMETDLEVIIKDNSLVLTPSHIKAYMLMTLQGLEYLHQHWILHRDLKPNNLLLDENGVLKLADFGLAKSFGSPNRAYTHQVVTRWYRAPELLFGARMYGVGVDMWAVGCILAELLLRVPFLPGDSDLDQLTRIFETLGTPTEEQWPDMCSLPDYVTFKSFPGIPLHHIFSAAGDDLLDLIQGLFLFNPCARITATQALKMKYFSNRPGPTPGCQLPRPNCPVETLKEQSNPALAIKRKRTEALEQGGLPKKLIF
Sequence of CDK7 (P51946 whole entry partner): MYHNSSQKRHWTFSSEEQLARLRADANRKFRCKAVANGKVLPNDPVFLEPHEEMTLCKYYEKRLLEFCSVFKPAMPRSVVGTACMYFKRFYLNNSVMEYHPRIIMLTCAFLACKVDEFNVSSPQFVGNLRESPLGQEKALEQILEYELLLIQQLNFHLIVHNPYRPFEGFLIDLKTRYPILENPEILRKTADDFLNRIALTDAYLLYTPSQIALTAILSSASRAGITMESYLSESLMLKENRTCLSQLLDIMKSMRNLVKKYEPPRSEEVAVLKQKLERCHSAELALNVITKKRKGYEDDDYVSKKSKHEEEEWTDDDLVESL
Sequence of CDK7 (P51948 whole entry partner): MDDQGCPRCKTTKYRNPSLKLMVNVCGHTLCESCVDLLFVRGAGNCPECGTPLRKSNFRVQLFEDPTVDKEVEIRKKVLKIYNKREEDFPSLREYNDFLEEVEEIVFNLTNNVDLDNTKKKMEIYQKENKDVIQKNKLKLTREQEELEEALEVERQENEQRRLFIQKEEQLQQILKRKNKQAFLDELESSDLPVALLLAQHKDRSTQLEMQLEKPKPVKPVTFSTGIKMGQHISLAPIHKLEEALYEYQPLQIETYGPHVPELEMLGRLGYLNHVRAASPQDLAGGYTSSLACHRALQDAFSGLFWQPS
Description: The CDK7 enzyme inhibition assay was conducted using the ADP‐Glo Kinase Assay (VA7402, Promega Corporation, Madison, WI, USA) according to the manufacturer's instructions. In this assay, CDK7 catalyzes the conversion of ATP to ADP. The reaction was terminated by adding the ADP‐Glo reagent, which depletes residual ATP. Subsequently, the kinase detection reagent was introduced to convert ADP back into ATP, which was then measured via a luciferase reaction, producing luminescence. The assay was carried out at room temperature, using DMSO as the solvent for the tested compounds. Each compound was tested at eight different concentrations. […] Luminescence was recorded using a BioTek plate reader (BioTek Instruments Inc.), as previously described.^[ [39] ^] The percentage of enzyme inhibition was determined for each compound at different concentrations, and mean IC50 values of triplicate experiments were calculated using GraphPad Prism.

[7] = tested on: PATU‐T spheroids; test: PATU‐T 3D spheroids, resazurin viability; type: cell-based; settings: three cell densities, 1 × IC50 and 4 × IC50
Description: The modulation of the growth of spheroids was utilized as a method to assess the effect of the novel compounds 1b and 1g in a 3D structure. The PATU‐T cell line was employed to make such a structure. Agarose 1.5% is a solid gel at RT; thus, in order to become a liquid solution, it was heated up into a microwave for about 30 s—1 min, depending on when it starts boiling. Once heated up, the bottle containing the agarose was wrapped in aluminum foil, and it was allowed to maintain the temperature and the liquid state of the agarose. Each well of a flat‐bottom 96‐well plate was coated with 70 µL of agarose. Plates were left to cool down and dried for 1 h at RT. Afterward, 7 × 10^3, 1 × 10^4, and 2 × 10^4 cells/well (200 µL) were seeded in order to identify the optimal amount of cell for the spheroid formation. Finally, the plates were centrifuged at 1200 rpm for 6 min and placed in the incubator for 7 days at 37 °C, 5% CO2. After one week, spheroids were imaged at day 0 h with the inverted routine microscope Nikon Eclipse Ts2 and were consequently treated with compounds 1b and 1g at 4 × IC50 and 1 × IC50. In order to assess the effects of the treatment, images were then taken every 3 days, and medium along with treatment was refreshed at the same interval. […] Cells were then collected, counted, and reseeded in 96‐well plates. […] Absorbance was read at 570 nm.

Row | Compound | percentage of cells in the G0‐G1 phase ([1]; SUIT 2.28, 1 × IC50, 24 h) [%] | percentage of cells in the G2‐M phase ([1]; SUIT 2.28, 1 × IC50, 24 h) [%] | percentage of cells in the S phase ([1]; SUIT 2.28, 1 × IC50, 24 h) [%] | percentage of cells in the G0‐G1 phase ([1]; SUIT 2.28, 4 × IC50, 24 h) [%] | percentage of cells in the G2‐M phase ([1]; SUIT 2.28, 4 × IC50, 24 h) [%] | percentage of cells in the S phase ([1]; SUIT 2.28, 4 × IC50, 24 h) [%] | percentage of cells in the G2‐M phase ([2]; PANC‐1, 1 × IC50, 24 h) [%] | percentage of cells in the G0‐G1 phase ([2]; PANC‐1, 1 × IC50, 24 h) [%] | percentage of cells in the S phase ([2]; PANC‐1, 1 × IC50, 24 h) [%] | percentage of cells in the G2‐M phase ([2]; PANC‐1, 4 × IC50, 24 h) [%] | percentage of cells in the G0‐G1 phase ([2]; PANC‐1, 4 × IC50, 24 h) [%] | percentage of cells in the S phase ([2]; PANC‐1, 4 × IC50, 24 h) [%] | percentage of cells in the G2‐M phase ([3]; PDAC3, 1 × IC50, 24 h) [%] | percentage of cells in the G0‐G1 phase ([3]; PDAC3, 1 × IC50, 24 h) [%] | percentage of cells in the G2‐M phase ([3]; PDAC3, 4 × IC50, 24 h) [%] | percentage of cells in the S phase ([3]; PDAC3, 4 × IC50, 24 h) [%] | percentage of cells in the G0‐G1 phase ([3]; PDAC3, 4 × IC50, 24 h) [%] | Bax/Bcl‐2 ratio PANC‐1 ([4]; 1 × IC50, 24 h after treatment) | Bax/Bcl‐2 ratio PANC‐1 ([4]; 4 × IC50, 24 h after treatment) | percentage of cells in the G2‐M phase ([5]; 1 × IC50, 24 h) [%] | other results
1 | Nc1ncnc2cc(-c3c[nH]c4ccc(Br)cc34)nn12 [Compound 1b, 7‐(5‐Bromo‐1H‐indol‐3‐yl)pyrazolo[1,5‐a][1,3,5]triazin‐4‐amine] | 41.0 | 18.7 | 40.3 | 41.6 | 21.6 | 34.9 | 12.2 | 55.0 | 32.7 | 10.0 | 62.8 | 28.3 | 11.1 | 44.0 | 6.9 | 51.6 | 41.6 | 4.12 | 2.44 | 14.9 | percentage of cells in the S phase ([5]; 1 × IC50, 24 h): 49.6%; percentage of cells in the G0‐G1 phase ([5]; 1 × IC50, 24 h): 35.5%; percentage of cells in the G2‐M phase ([5]; 4 × IC50, 24 h): 10.1%; percentage of cells in the S phase ([5]; 4 × IC50, 24 h): 60.0%; percentage of cells in the G0‐G1 phase ([5]; 4 × IC50, 24 h): 30.0%; IC50 ([6]; ADP‐Glo assay, mean of triplicate experiments, read-out: CDK7 inhibition activity IC50): 25 nM; cell viability compared to untreated controls (resazurin) [7]: significantly reduced viability
2 | Cn1cc(-c2cc3ncnc(N)n3n2)c2cc(Br)ccc21 [Compound 1g, 7‐(5‐Bromo‐1‐methyl‐1H‐indol‐3‐yl)pyrazolo[1,5‐a][1,3,5]triazin‐4‐amine] | 36.2 | 25.9 | 37.8 | 40.3 | 25.4 | 34.2 | 16.9 | 55.2 | 27.9 | 14.1 | 56.9 | 29.0 | 13.3 | 55.9 | 9.8 | 30.4 | 59.8 | 6.41 | 1.83 | 17.7 | percentage of cells in the S phase ([3]; PDAC3, 1 × IC50, 24 h): 30.8%; percentage of cells in the S phase ([5]; 1 × IC50, 24 h): 35.0%; percentage of cells in the G0‐G1 phase ([5]; 1 × IC50, 24 h): 47.4%; percentage of cells in the G2‐M phase ([5]; 4 × IC50, 24 h): 15.2%; percentage of cells in the S phase ([5]; 4 × IC50, 24 h): 39.0%; percentage of cells in the G0‐G1 phase ([5]; 4 × IC50, 24 h): 45.7%; IC50 [6]: 28 nM; cell viability compared to untreated controls (resazurin) [7]: significantly reduced viability
